In brackets after ≈: the same amount, converted by molar mass. Activity calls are given as the source filed them. The rule behind the calls is not given here.
Legend:
[1] = test system: Mycobacterium tuberculosis; test: Inhibition of mycolic acid synthesis in [1,2-14C]-acetate-labelled Mycobacterium tuberculosis H37Ra at 5 ug/ml preincubated for 20 hrs followed by radiolabelling measured after 24 hrs by autoradiography; assay type: functional, organism-based
[2] = test system: Mycobacterium tuberculosis; test: Effect on short chain fatty acids production in [1,2-14C]-acetate-labelled Mycobacterium tuberculosis H37Ra at 5 ug/ml preincubated for 20 hrs followed by radiolabelling measured after 24 hrs by autoradiography; assay type: functional, organism-based
[3] = test system: Mycobacterium tuberculosis; test: Antimycobacterial activity against Mycobacterium tuberculosis H37Rv CNCTC My 331/88 incubated for 10 to 14 days by microplate alamar blue assay; assay type: functional
Mycobacterium kansasii = test: Antimycobacterial activity against Mycobacterium kansasii CNCTC My 235/80 incubated for 5 to 7 days by microplate alamar blue assay; assay type: functional
[4] = Lipophilicity, logK of the compound by RP-HPLC analysis; assay type: physicochemical
Escherichia coli = test: Antibacterial activity against Escherichia coli CCM 4517 after 24 to 48 hrs by broth microdilution method; assay type: functional
Mycobacterium avium [5] = test: Antimycobacterial activity against Mycobacterium avium CNCTC My 152/73 after 5 days by microplate alamar blue assay; assay type: functional; settings: CNCTC My 152/73, 120 h
Influenza A virus [6] = test: Antiviral activity against Influenza A virus (A/Puerto Rico/8/(H1N1)) assessed as inhibition of virus-induced cytopathic effect after 3 to 6 days by microscopic analysis; assay type: functional, organism-based
Candida tropicalis = test: Antifungal activity against Candida tropicalis 156 after 24 to 48 hrs by broth microdilution method; assay type: functional
Klebsiella pneumoniae [7] = test: Antibacterial activity against Klebsiella pneumoniae D 11750/08 after 24 to 48 hrs by broth microdilution method; assay type: functional
Trichosporon asahii = test: Antifungal activity against Trichosporon asahii 1188 after 24 to 48 hrs by broth microdilution method; assay type: functional
[8] = test system: Respiratory syncytial virus; test: Antiviral activity against Respiratory syncytial virus infecetd in human HeLa cells assessed as inhibition of virus replication after 3 to 6 days; assay type: functional, organism-based
Influenza A virus [9] = test: Antiviral activity against Influenza A virus (A/Puerto Rico/8/(H1N1)) assessed as inhibition of virus-induced cytopathic effect after 3 to 6 days by formazan-based MTS assay; assay type: functional, organism-based
[10] = Cytotoxicity against CRFK cells assessed as cell viability after 4 to 6 days by formazan-based MTS assay; design: species or system Felis catus; settings: cat
Nakaseomyces glabratus = test: Antifungal activity against Candida glabrata 20/I after 24 to 48 hrs by broth microdilution method; assay type: functional
Klebsiella pneumoniae [11] = test: Antibacterial activity against ESBL positive Klebsiella pneumoniae J 14368/08 after 24 to 48 hrs by broth microdilution method; assay type: functional
Aspergillus fumigatus = test: Antifungal activity against Aspergillus fumigatus 231 after 24 to 48 hrs by broth microdilution method; assay type: functional
Pichia kudriavzevii = test: Antifungal activity against Candida krusei E28 after 24 to 48 hrs by broth microdilution method; assay type: functional
[12] = Cytotoxicity against HEL cells assessed as cell viability after 4 to 6 days by microscopic analysis; assay type: cell-based; settings: human
[13] = Cytotoxicity against human HeLa cells assessed as cell viability after 4 to 6 days by microscopic analysis; assay type: cell-based
[14] = test system: Mycobacterium tuberculosis; test: Potency index, ratio of pyrazinamide MIC to compound MIC for Mycobacterium tuberculosis H37Rv CNCTC My 331/88; assay type: functional
[15] = Cytotoxicity against MDCK cells assessed as cell viability after 4 to 6 days by microscopic analysis; assay type: cell-based, Canis lupus familiaris; settings: dog
[16] = test system: Trichophyton mentagrophytes; test: Antifungal activity against Trichophyton mentagrophytes 445 after 72 to 120 hrs by broth microdilution method; assay type: functional
Pseudomonas aeruginosa = test: Antibacterial activity against Pseudomonas aeruginosa CCM 1961 after 24 to 48 hrs by broth microdilution method; assay type: functional
[17] = Cytotoxicity against MDCK cells assessed as cell viability after 4 to 6 days by formazan-based MTS assay; design: species or system Canis lupus familiaris; settings: dog
Mycobacterium avium [18] = test: Antimycobacterial activity against Mycobacterium avium CNCTC My 80/72 after 5 days by microplate alamar blue assay; assay type: functional; settings: CNCTC My 80/72, 120 h
[19] = Cytotoxicity against African green monkey Vero cells assessed as cell viability after 4 to 6 days by microscopic analysis; assay type: cell-based; settings: chlorocebus sabaeus
Candida albicans = test: Antifungal activity against Candida albicans ATCC 44859 after 24 to 48 hrs by broth microdilution method; assay type: functional
Lichtheimia corymbifera = test: Antifungal activity against Lichtheimia corymbifera 272 after 24 to 48 hrs by broth microdilution method; assay type: functional
[20] = test system: Mycobacterium tuberculosis; test: Antimycobacterial activity against Mycobacterium tuberculosis H37Rv; assay type: functional
Staphylococcus aureus [21] = test: Antibacterial activity against methicillin-resistant Staphylococcus aureus H 5996/08 after 24 to 48 hrs by broth microdilution method; assay type: functional, organism-based
Staphylococcus aureus [22] = test: Antibacterial activity against Staphylococcus aureus after 24 to 48 hrs by broth microdilution method; assay type: functional
[23] = Inhibition of Mycobacterium tuberculosis InhA

Row | SMILES | MIC [3] | MIC (Mycobacterium kansasii) | log K [4] | MIC95 (Escherichia coli) | MIC (Mycobacterium avium [5]) | EC50 (Influenza A virus [6]) | MIC (Candida tropicalis) | MIC95 (Klebsiella pneumoniae [7]) | MIC (Trichosporon asahii) | EC50 (Influenza A virus [9]) | CC50 [10] | MIC (Nakaseomyces glabratus) | MIC95 (Klebsiella pneumoniae [11]) | MIC (Aspergillus fumigatus) | MIC (Pichia kudriavzevii) | MCC [12] | MCC [13] | Ratio [14] | MCC [15] | MIC (Mycobacterium avium [18]) | also measured
1 | NNC(=O)c1ccncc1 [ISONIAZID] | 2.8 µM (≈ 0.384 µg/mL) | 11 µM | -0.743 | – | – | – | – | – | – | – | – | – | – | – | – | – | – | – | – | – | inhibition [1]: Active; Activity [2]: inactive
2 | CCCCCCCCNc1cnc(C(=O)NCc2ccccc2)cn1 | 4.6 µM (≈ 1.57 µg/mL) | > 100 µg/mL | 1.312 | > 500 µM | > 100 µg/mL | 1.1 µM | > 500 µM | > 500 µM | > 500 µM | > 100 µM | 28 µM | > 500 µM | > 500 µM | > 500 µM | > 500 µM | 100 µM | 100 µM | <=20 | ≥ 20 µM | > 100 µg/mL | inhibition [1]: inactive; EC50 [8]: 8.9 µM; MIC [16]: > 500 µM; MIC95 (Pseudomonas aeruginosa): > 500 µM; CC50 [17]: 62 µM; MCC [19]: 20 µM; MIC (Candida albicans): > 500 µM; MIC (Lichtheimia corymbifera): > 500 µM
3 | CCCCCCNc1cnc(C(=O)NCc2ccccc2)cn1 | 10 µM (≈ 3.12 µg/mL) | > 100 µg/mL | 0.859 | > 500 µM | > 100 µg/mL | 52 µM | > 500 µM | > 500 µM | > 500 µM | 62 µM | > 100 µM | > 500 µM | > 500 µM | > 500 µM | > 500 µM | > 100 µM | > 100 µM | <=20 | > 100 µM | > 100 µg/mL | MIC [16]: > 500 µM; MIC95 (Pseudomonas aeruginosa): > 500 µM; CC50 [17]: > 100 µM; MCC [19]: ≥ 100 µM; MIC (Candida albicans): > 500 µM; MIC (Lichtheimia corymbifera): > 500 µM
4 | O=C(NCc1ccccc1)c1cncc(Cl)n1 | – | 404 µM | 0.2 | – | > 100 µg/mL | – | – | – | – | – | – | – | – | – | – | – | – | – | – | > 100 µg/mL | MIC [20]: 50 µM (≈ 12.4 µg/mL)
5 | O=C(NCc1ccccc1)c1cnc(Cl)cn1 | – | 100 µg/mL | 0.186 | – | > 100 µg/mL | – | – | – | – | – | – | – | – | – | – | – | – | – | – | > 100 µg/mL | MIC [20]: 100 µM (≈ 24.8 µg/mL)
6 | CCCCCCCCNc1cncc(C(=O)NCc2ccccc2)n1 | 9.2 µM (≈ 3.13 µg/mL) | 18 µM | 1.431 | > 500 µM | > 100 µg/mL | > 100 µM | > 500 µM | > 500 µM | > 500 µM | > 100 µM | > 100 µM | > 500 µM | > 500 µM | > 500 µM | > 500 µM | > 100 µM | > 100 µM | <=20 | 4 µM | > 100 µg/mL | Activity (Staphylococcus aureus [21]): inactive; MIC [16]: > 500 µM; MIC95 (Pseudomonas aeruginosa): > 500 µM; CC50 [17]: 1.3 µM; MCC [19]: > 100 µM; MIC95 (Staphylococcus aureus [22]): 3.9 µM (≈ 1.33 µg/mL); MIC (Candida albicans): > 500 µM; MIC (Lichtheimia corymbifera): > 500 µM
7 | CCCCCCCCc1ccc(Oc2ccccc2)c(O)c1 | – | – | – | – | – | – | – | – | – | – | – | – | – | – | – | – | – | – | – | – | IC50 [23]: 0.005 µM
8 | CCCCCCCNc1cncc(C(=O)NCc2ccccc2)n1 | 10 µM (≈ 3.26 µg/mL) | 38 µM | 1.207 | > 500 µM | > 100 µg/mL | > 100 µM | > 500 µM | > 500 µM | > 500 µM | > 100 µM | > 100 µM | > 500 µM | > 500 µM | > 500 µM | > 500 µM | > 100 µM | > 100 µM | <=20 | 4 µM | > 100 µg/mL | Activity (Staphylococcus aureus [21]): inactive; inhibition [1]: inactive; MIC [16]: > 500 µM; MIC95 (Pseudomonas aeruginosa): > 500 µM; CC50 [17]: 2.4 µM; MCC [19]: > 100 µM; MIC (Candida albicans): > 500 µM; MIC (Lichtheimia corymbifera): > 500 µM

Reference: ChEMBL document CHEMBL3745676, “Alkylamino derivatives of N-benzylpyrazine-2-carboxamide: synthesis and antimycobacterial evaluation” (Medchemcomm, 2015)
